ChEMBL document CHEMBL1201862, “PubChem BioAssay data set” (2004)
The source made the active and inactive calls.

Tests used:
[1] = molecular target: 5-hydroxytryptamine receptor 1A (Homo sapiens, UniProt P08908); format: functional
[2] = molecular target: Mitogen-activated protein kinase 10 (Homo sapiens, UniProt P53779); assay: Dose response biochemical screening assay for inhibitors of c-Jun N-Terminal Kinase 3 (JNK3). [Related pubchem assays: 746 ]
[3] = Luminescence Cell-Based Dose Confirmation HTS to Identify Activators of 5'UTR Stem-Loop Driven Alpha-Synuclein mRNA Translation in H4 Neuroglioblastoma Cells. [Related pubchem assays: 1829 (Project Summary), 1814 (Primary HTS)]; format: functional
[4] = Luminescence Cell-Based Dose Response HTS to Identify Activators of Luciferase Translation or Activity in H4 […] Cells. [Related pubchem assays: 1829 (Project Summary), 1814 (Primary HTS)]; format: functional
[5] = test system: H4; assay: Luminescence Cell-Based Dose Response HTS to Identify Activators of 5'UTR Stem-Loop Driven Prion Protein mRNA Translation in H4 Neuroglioblastoma Cells. [Related pubchem assays: 1829 (Project Summary), 1814 (Primary HTS)]; format: functional; settings: Homo sapiens
[6] = molecular target: Ephrin type-A receptor 4 (Mus musculus, UniProt Q03137); assay: inhibitors of EphA4 binding to KYL peptide, primary screen, biochemical, colorimetric, mouse EphA4 (AID 689); format: functional
[7] = molecular target: Induced myeloid leukemia cell differentiation protein Mcl-1 (Homo sapiens, UniProt Q07820); format: functional
[8] = molecular target: Heat shock protein HSP 90-alpha (Homo sapiens, UniProt P07900); format: functional, organism-based
[9] = M. tuberculosis growth inhibition, HTS (AID 449762); format: functional
[10] = Luminescence Cell-Based Dose Retest to Confirm Inhibitors of Cancer Stem Cells. [Related pubchem assays (depositor defined):AID2717, AID2721]; format: functional; settings: Homo sapiens
[11] = Concentration-dependent survival of SW480 colon cancer line, luminescence detection with CellTiter-Glo, half-maximal inhibitory concentration (AID 1117338); format: functional
[12] = RKO cell viability reduction, dose response, CellTiter-Glo luminescence (AID 1117322); format: functional
[13] = cytotoxicity toward HCT116 cells – cell-based, CellTiter-Glo luminescence, IC50, dose response (AID 1117332); format: functional; settings: HCT-116
[14] = SNU-C1 cell viability reduction, dose response, CellTiter-Glo luminescence (AID 1117323); format: functional, cell-based
[15] = cytotoxicity toward Colo320 cells – cell-based, CellTiter-Glo luminescence, IC50, dose response (AID 1117334); format: functional; settings: COLO 320
[16] = cytotoxicity toward HT-29 cells – cell-based, CellTiter-Glo luminescence, IC50, dose response (AID 1117330); format: functional
[17] = CellTiter-Glo luminescent dose response of DLD-1 viability loss (AID 1117352); format: functional
[18] = HCT116 cell viability decrease, GSK3B pretreatment – CellTiter-Glo, IC50, dose response (AID 1117339); format: functional; settings: HCT-116
[19] = intracellular Trypanosoma cruzi inhibitors in host cells – cell-based, plate reader, cherry-pick samples, set 3, dose response (AID 651818); format: functional;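 also: compounds incubated with infected cells for about four days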
[20] = P. falciparum blood-stage growth inhibition, dose response, NF54 strain, plate reader, dry powder (AID 651889); format: functional, cell-based
[21] = L-6 rat myoblast cytotoxicity, dose response, counter-screen for T. cruzi inhibitor project, cell-based, plate reader, dry powder (AID 651895); format: functional
[22] = T. cruzi growth inhibition in host cells, dose response, cell-based, plate reader, dry powder, set 2 (AID 652275); format: functional
[23] = growth inhibition of intracellular T. cruzi, dose response, cell-based, plate reader, dry powder samples (AID 651845); format: functional
[24] = T. cruzi intracellular amastigote growth inhibition, dose response, imaging, CA-I/72 strain, bovine embryo skeletal muscle, dry powder (AID 651885); format: functional, cell-based
[25] = L. donovani amastigote growth inhibition, dose response, axenic amastigotes, plate reader, dry powder (AID 651892); format: functional, cell-based
[26] = T. cruzi amastigote growth inhibition, dose response, Tulahuen strain, L-6 host cells, dry powder (AID 651890); format: functional, cell-based
[27] = T. b. rhodesiense proliferation inhibition, dose response, STIB900 strain, plate reader, dry powder (AID 651894); format: functional, cell-based
[28] = molecular target: Sphingosine 1-phosphate receptor 2 (Homo sapiens, UniProt O95136); assay: Dose Response Cell Based Assay for Agonists of the S1P2 Receptor. [Related pubchem assays: 729, 736, 843 ]; format: functional
[29] = inhibitors of intracellular T. cruzi replication, confirmation, NIH3T3 host cells, beta-gal luminescence (AID 2044); format: functional, cell-based;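 also: intracellular parasites grown in NIH/3T3 mouse fibroblasts as host cells; luminescent beta-galactosidase reporter signal from transgenic T. cruzi replicating inside host cells; inhibitors lower the luminescence signal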
[30] = microbe, parasite or virus in culture; format: functional; settings: Mycobacterium tuberculosis
[31] = cytotoxicity toward NIH3T3 fibroblasts, dose response, counter-screen, cell-based, ATP luminescence, mouse fibroblasts (AID 2010); format: functional;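 also: cells exposed to compound for about 90 hours before reading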
[32] = molecular target: Cytochrome P450 3A4 (Homo sapiens, UniProt P08684);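 also: CYP3A4 tested as one member of a cytochrome P450 panel screen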
Sequence of Cytochrome P450 3A4 (P08684 whole entry): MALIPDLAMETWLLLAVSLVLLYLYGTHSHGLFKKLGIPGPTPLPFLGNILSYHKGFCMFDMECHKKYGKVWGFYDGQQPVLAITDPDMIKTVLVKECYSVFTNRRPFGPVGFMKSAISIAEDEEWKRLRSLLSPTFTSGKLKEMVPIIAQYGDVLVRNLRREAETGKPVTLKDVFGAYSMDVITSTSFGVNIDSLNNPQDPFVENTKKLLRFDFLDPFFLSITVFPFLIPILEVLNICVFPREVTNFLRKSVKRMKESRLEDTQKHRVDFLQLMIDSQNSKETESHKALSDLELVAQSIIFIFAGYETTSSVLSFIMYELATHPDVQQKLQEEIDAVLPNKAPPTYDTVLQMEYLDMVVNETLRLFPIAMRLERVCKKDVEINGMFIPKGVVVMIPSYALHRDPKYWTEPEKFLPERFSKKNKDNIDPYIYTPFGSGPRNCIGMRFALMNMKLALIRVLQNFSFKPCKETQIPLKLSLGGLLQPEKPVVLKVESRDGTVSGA

Sequence of Mitogen-activated protein kinase 10 (P53779 whole entry): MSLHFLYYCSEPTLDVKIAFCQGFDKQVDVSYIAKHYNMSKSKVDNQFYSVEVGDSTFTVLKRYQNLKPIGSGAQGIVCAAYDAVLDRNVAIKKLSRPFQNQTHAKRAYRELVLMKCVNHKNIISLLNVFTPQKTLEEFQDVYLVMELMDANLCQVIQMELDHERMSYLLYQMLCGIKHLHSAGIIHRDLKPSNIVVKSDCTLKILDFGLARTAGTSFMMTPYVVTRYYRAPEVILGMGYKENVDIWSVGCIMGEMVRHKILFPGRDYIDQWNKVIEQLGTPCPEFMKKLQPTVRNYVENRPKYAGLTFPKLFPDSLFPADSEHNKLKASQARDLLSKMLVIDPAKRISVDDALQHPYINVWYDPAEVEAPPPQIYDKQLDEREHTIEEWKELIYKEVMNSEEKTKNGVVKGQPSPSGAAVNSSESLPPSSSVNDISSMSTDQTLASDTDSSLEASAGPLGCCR
Sequence of Ephrin type-A receptor 4 (Q03137 whole entry): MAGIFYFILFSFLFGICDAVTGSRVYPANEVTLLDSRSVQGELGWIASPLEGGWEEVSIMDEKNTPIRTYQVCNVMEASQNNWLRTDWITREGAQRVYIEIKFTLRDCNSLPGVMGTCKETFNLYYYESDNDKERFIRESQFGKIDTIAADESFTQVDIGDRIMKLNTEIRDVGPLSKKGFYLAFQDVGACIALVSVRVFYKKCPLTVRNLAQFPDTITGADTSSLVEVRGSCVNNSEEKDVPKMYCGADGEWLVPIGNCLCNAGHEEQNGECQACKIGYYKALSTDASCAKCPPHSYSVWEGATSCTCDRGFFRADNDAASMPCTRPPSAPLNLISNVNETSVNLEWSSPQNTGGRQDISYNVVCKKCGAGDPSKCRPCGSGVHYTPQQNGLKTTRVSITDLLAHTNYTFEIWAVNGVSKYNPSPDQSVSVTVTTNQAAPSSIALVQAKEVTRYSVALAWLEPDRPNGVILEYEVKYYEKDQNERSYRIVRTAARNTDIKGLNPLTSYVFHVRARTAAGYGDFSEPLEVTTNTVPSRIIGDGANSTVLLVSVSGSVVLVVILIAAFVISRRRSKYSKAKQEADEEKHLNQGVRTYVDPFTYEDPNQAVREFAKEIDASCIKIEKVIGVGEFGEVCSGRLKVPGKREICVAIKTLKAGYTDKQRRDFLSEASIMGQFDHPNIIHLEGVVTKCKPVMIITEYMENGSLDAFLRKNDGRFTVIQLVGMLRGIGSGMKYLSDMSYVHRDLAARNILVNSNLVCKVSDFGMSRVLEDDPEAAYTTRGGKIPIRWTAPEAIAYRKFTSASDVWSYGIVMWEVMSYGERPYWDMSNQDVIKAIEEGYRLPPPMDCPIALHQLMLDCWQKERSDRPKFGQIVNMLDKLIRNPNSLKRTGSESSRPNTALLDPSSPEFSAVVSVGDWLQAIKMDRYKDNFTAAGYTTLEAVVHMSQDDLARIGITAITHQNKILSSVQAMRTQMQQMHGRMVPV
Sequence of Sphingosine 1-phosphate receptor 2 (O95136 whole entry): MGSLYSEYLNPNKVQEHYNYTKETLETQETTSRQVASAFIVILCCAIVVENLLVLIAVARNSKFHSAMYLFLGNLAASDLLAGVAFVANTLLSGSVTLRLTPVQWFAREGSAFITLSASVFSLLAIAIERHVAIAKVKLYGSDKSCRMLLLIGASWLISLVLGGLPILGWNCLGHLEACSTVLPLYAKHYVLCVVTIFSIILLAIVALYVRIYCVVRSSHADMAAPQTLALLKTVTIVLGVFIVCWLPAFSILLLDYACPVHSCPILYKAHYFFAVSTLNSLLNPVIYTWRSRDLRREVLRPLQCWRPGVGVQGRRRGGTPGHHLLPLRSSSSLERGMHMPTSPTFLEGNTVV
Sequence of Induced myeloid leukemia cell differentiation protein Mcl-1 (Q07820 whole entry): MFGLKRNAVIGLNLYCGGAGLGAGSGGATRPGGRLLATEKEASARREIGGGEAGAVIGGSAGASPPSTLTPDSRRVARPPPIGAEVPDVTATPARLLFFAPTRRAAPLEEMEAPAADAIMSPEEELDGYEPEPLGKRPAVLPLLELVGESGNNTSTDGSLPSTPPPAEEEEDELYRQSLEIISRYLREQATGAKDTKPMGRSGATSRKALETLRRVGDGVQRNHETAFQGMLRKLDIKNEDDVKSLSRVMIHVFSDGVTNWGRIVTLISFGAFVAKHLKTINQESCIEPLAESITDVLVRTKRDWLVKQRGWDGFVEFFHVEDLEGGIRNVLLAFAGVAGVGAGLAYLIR
Sequence of 5-hydroxytryptamine receptor 1A (P08908 whole entry): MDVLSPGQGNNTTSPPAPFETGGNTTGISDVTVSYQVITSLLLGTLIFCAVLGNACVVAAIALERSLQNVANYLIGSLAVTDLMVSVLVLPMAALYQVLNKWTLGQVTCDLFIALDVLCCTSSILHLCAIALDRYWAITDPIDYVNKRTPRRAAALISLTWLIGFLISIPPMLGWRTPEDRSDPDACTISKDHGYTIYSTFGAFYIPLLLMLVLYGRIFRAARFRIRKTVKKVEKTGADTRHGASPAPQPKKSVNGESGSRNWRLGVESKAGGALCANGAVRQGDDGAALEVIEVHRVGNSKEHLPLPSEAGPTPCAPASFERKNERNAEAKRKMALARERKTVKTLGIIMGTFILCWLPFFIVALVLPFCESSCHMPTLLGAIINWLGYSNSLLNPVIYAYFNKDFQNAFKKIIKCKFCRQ

Cc1[nH]c2c(C(F)(F)F)cccc2c1CCN
EC50 [1]: > 50 µM (not active)

COc1ccc2c(c1)c1ncn(Cc3ccco3)c(=O)c1n2C
IC50 [2]: 90 µM (not active)

CCOC(=O)c1c(C)oc2c1c(C(c1cccnc1)N1CCOCC1)c(O)c1ccccc12 (stereo not drawn)
EC50 [3]: 12.5 µM (active)
EC50 [4]: 106 µM (active)
EC50 [5]: > 120 µM (not active)
IC50 [6]: 3.58 µM (active)
IC50 [7]: 1.17 µM (active)
AC50 [8]: 8.43 µM (active)

COc1ccc(N/N=C(\C=O)C(=O)c2cccs2)cc1
IC50 [9]: > 100 µM (active)
AC50 [10]: 3.43 µM (active)

Cc1cc2nc3c(=O)[nH]c(=O)nc-3n(C[C@H](O)[C@H](O)[C@H](O)COP(=O)(O)OP(=O)(O)OC[C@H]3O[C@@H](n4cnc5c(N)ncnc54)[C@H](O)[C@H]3O)c2cc1C
IC50 [11]: > 20 µM (inactive)
IC50 [12]: > 20 µM (inactive)
IC50 [13]: > 20 µM (inactive)
IC50 [14]: > 20 µM (inactive)
IC50 [15]: > 20 µM (inactive)
IC50 [16]: > 20 µM (inactive)
IC50 [17]: > 20 µM (inactive)
IC50 [18]: > 20 µM (inactive)

C[C@@H]1CN([C@H](C)CO)C(=O)c2cccc(NC(=O)c3ccncc3)c2O[C@H]1CN(C)Cc1ccc(Oc2ccccc2)cc1
AC50 [19]: 0.08 µM (active)
IC50 [20]: 0.82 µM (inactive)
IC50 [21]: 13.3 µM (inactive)
AC50 [22]: 0.0017 µM (active)
AC50 [23]: 0.00521 µM (active)
IC50 [24]: 0.03 µM (active)
IC50 [25]: 43.7 µM (inactive)
IC50 [26]: 0.031 µM (active)
IC50 [27]: 0.242 µM (active)

N#CCN1CCN(CC(=O)Nc2cccc3ccccc23)CC1
EC50 [28]: > 50 µM (not active)

Cc1ccccc1C1C(C#N)=C2N=C(N)c3c(sc4c3CCCCC4)N2C2=C1C(=O)CC(C)(C)C2 (stereo not drawn)
IC50 [9]: > 100 µM (active)
EC50 [29]: 1.52 µM (active)
CC50 [30]: 33.1 µM (active)
EC50 [31]: > 60 µM (inconclusive)
AC50 [32]: 1.12 µM (inconclusive)
